Results published in article PMC6788984, “High-potency ligands for DREADD imaging and activation in rodents and monkeys” (Nature Communications, 2019).
Values joined by “and” are separate entries in the source; they are usually repeats but may differ in a detail not shown here. Identical values can stand only once.

Columns and labels:
hM4Di [1] = molecular target: T1, hM4Di (Homo sapiens, UniProt P08173, A203G/Y113C); experiment: [18F]JHU37107 PET in rats expressing hM3Dq or hM4Di in the right motor cortex; type: in vivo, rat; set-up: expressed in transfected cells; host or cells: rat right motor cortex, AAV-transduced neurons; settings: unilateral hM4Di in right motor cortex
T1 sequence (P08173 1-479 Y113C/A203G): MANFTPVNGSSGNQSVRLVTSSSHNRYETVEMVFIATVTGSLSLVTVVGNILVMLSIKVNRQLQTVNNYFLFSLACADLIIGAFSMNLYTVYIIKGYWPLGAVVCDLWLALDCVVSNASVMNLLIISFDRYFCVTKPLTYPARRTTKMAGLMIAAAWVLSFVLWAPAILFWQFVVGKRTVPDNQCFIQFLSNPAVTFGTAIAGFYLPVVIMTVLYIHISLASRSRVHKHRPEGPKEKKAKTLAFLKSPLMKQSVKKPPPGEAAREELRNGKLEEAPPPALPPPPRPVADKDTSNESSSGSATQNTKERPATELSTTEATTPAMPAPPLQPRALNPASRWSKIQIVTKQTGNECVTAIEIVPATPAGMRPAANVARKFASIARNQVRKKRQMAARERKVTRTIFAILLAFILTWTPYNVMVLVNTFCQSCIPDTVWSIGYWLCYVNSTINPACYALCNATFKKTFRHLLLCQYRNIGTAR
Description: [^18F]JHU37107 was prepared via the no-carrier-added ^18F-fluorination using an FDG Nuclear Interface module (Muenster, Germany). Briefly, 4 mg precursor (8-chloro-11-(4-ethylpiperazin-1-yl)-5H-dibenzo[b,e][1,4]diazepin-2-ol) and 8 mg tris(acetonitrile)cyclopentadienylruthenium(II)hexafluorophosphate (STREM, Boston, MA) were dissolved in ethanol (0.3 mL), the solution was heated at 85 °C for 25 min and evaporated to dryness under a stream of argon gas. The residue was dissolved in DMSO (0.5 mL) and acetonitrile (0.5 mL) and the solution was added to a dry complex of [^18F]fluoride and 9 mg 1,3-bis(2,6-di-i-propylphenyl)-2-chloroimidazolium chloride (STREM). The reaction mixture was heated at 130 °C for 30 min, diluted with mixture of 0.5 mL acetonitrile, 0.5 mL water and 0.03 mL TFA and injected onto a semi-preparative HPLC column (Luna C18, 10 micron, 10 mm × 250 mm) and eluted with 23:77 (v:v) acetonitrile:water (0.1% trifluoroacetic acid) at a flow rate of 10 mL min^−1. […] The final product [^18F]JHU37107 was then analyzed by analytical HPLC (Luna C18, 10 micron, 4.6 mm × 250 mm; mobile phase 23:77 (v:v) acetonitrile:water (0.1% trifluoroacetic acid), flow rate of 3 mL min^−1; tR = 6.4 min) using a UV detector at 254 nm to determine the radiochemical purity (>95%) and specific radioactivity (152–188 GBq μmol^−1 (4100–5070 mCi μmol^−1)) at the time synthesis ended. […]

[2] = Radiometabolite analysis of [18F]JHU37107 in monkey plasma / whole blood (radio-HPLC); type: in vivo, rhesus monkey (Macaca mulatta)
Description: To determine the arterial input function for the radiotracers injected in rhesus monkeys radioligand concentrations in the arterial plasma were corrected by the unchanged parent fraction. […] Blood samples were immediately sampled for gamma counting, and plasma harvested by centrifugation for gamma counting and radio-HPLC analysis. The unchanged plasma parent fractions were determined by radio-HPLC on an X-terra® C18 column (10 µm, 7.8 mm × 300 mm, Waters Corp., Milford, MA), and eluted with MeOH:H2O:Et3N (80:20:0.1; by volume) at an isocratic flow rate of 4.0 mL min^−1. Eluates were monitored with an in-line flow-through NaI(Tl) scintillation detector (Bioscan). Data were stored and analyzed on a PC using the software “Bio-ChromeLite”. The collection of data for each radiochromatogram was decay corrected according to its respective HPLC injection time. Plasma free fraction was determined according to our previous methods.

hM4Di [3] = molecular target: T1, hM4Di; experiment: [18F]JHU37107 PET in a monkey expressing hM4Di in the right amygdala; type: in vivo, rhesus monkey (Macaca mulatta); set-up: expressed in transfected cells; host or cells: rhesus monkey (Macaca mulatta) right amygdala, lentivirus-transduced neurons
Description: Lentivirus expressing an hM4Di-CFP fusion protein under an hSyn promoter[11] with a titer of >10^9 infectious particles was loaded into a 100 µL glass syringe (Hamilton Co., MA). The 31-gauge needle of the syringe was sheathed with a silica capillary (450 µm OD) to create a step 1 mm from the base of the aperture. The syringe was mounted in a Nanomite pump (Harvard Apparatus, Cambridge, MA). The needle was lowered through the incision in the dura mater to each of the pre-calculated target sites and 10 or 20 µL was infused at a rate of 1 µL min^−1. Each monkey received a total of between 10 and 12 injections (for a total injection volume of 120–240 µL). Post-infusion, the needle was left in situ for 10 min after each injection to allow pressure from the infusate to dissipate. The needle was then slowly removed. At the completion of the injection series the soft tissues were sutured together in anatomical layers.
[^18F]JHU37107 was prepared via the no-carrier-added ^18F-fluorination using an FDG Nuclear Interface module (Muenster, Germany). Briefly, 4 mg precursor (8-chloro-11-(4-ethylpiperazin-1-yl)-5H-dibenzo[b,e][1,4]diazepin-2-ol) and 8 mg tris(acetonitrile)cyclopentadienylruthenium(II)hexafluorophosphate (STREM, Boston, MA) were dissolved in ethanol (0.3 mL), the solution was heated at 85 °C for 25 min and evaporated to dryness under a stream of argon gas. The residue was dissolved in DMSO (0.5 mL) and acetonitrile (0.5 mL) and the solution was added to a dry complex of [^18F]fluoride and 9 mg 1,3-bis(2,6-di-i-propylphenyl)-2-chloroimidazolium chloride (STREM). The reaction mixture was heated at 130 °C for 30 min, diluted with mixture of 0.5 mL acetonitrile, 0.5 mL water and 0.03 mL TFA and injected onto a semi-preparative HPLC column (Luna C18, 10 micron, 10 mm × 250 mm) and eluted with 23:77 (v:v) acetonitrile:water (0.1% trifluoroacetic acid) at a flow rate of 10 mL min^−1. The radioactive peak corresponding to [^18F]JHU37107 (tR = 9.9 min) was collected in a reservoir containing 50 mL of water and 3 mL aq 8.4% NaHCO3 solution. The diluted product was loaded onto a solid phase extraction cartridge (Waters Oasis HLB plus light) and rinsed with 10 mL sterile saline. The product was eluted with 1000 µL of ethanol through a sterile 0.2 μm filter into a sterile, pyrogen-free vial and 10 mL saline was added through the same filter. The final product [^18F]JHU37107 was then analyzed by analytical HPLC (Luna C18, 10 micron, 4.6 mm × 250 mm; mobile phase 23:77 (v:v) acetonitrile:water (0.1% trifluoroacetic acid), flow rate of 3 mL min^−1; tR = 6.4 min) using a UV detector at 254 nm to determine the radiochemical purity (>95%) and specific radioactivity (152–188 GBq μmol^−1 (4100–5070 mCi μmol^−1)) at the time synthesis ended.
All macaque studies were acquired dynamically on the Focus 220 PET scanner (Siemens Medical Solutions, Knoxville, TN). The Focus 220 is a dedicated pre-clinical scanner with a transaxial FOV of 19 cm and an axial FOV of 7.5 cm. Image resolution is <2 mm within the central 5 cm FOV.
After initial evaluation the monkey was sedated with ketamine (10 mg kg^−1) followed by ketoprofen (as an analgesic) and glycopyrrolate (for salvia reduction), all weight dependent IM injections. The monkey would then be placed in the supine position, intubated with a tracheal tube. […] The monkey was always monitored while anesthetized. […]

WT mice = experiment: [18F]FDG PET metabolic mapping in WT mice; type: in vivo, mouse; settings: 0.1 mg/kg
Description: Mice (D1-hM3Dq, D1-hM4Di or WT littermates, see above) were habituated to experimenter handling and fasted 16 h before the experiment. On the day of the experiment, mice received an IP injection of vehicle (1 ml kg^−1) and were placed back into their home cages. Ten minutes later, mice were injected (IP) with 11 MBq of 2-deoxy-2-[^18F]fluoro-D-glucose (FDG, Cardinal Health) and placed back into their home cages. After 30 min, mice were anesthetized with 1.5% isoflurane, placed on a custom-made bed of a nanoScan small animal PET/CT scanner (Mediso Medical Imaging Systems) and scanned for 20 min on a static acquisition protocol, followed by a CT scan. […] Voxel-based repeated measures with Student’s t test comparing baseline to drug were performed, and the resulting parametric images were filtered for statistically significant (p < 0.05) clusters larger than 100 contiguous voxels. All statistical parametric mapping analyses were performed using Matlab R2016 (Mathworks) and SPM12 (University College London).

hM4Di [4] = molecular target: T1, hM4Di; experiment: [35S]GTPgammaS autoradiography in rat brain sections expressing hM4Di; type: biochemical; set-up: expressed in transfected cells; host or cells: rat right motor cortex, AAV-transduced neurons; settings: 10 nM
Description: Sections were encircled with a hydrophobic membrane using a PAP pen (Sigma-Aldrich). Preincubation buffer was pipetted onto each slide and allowed to incubate for 20 min (50 mM Tris-HCl, 1 mM EDTA, 5 mM MgCl2 and 100 mM NaCl). The preincubation buffer was removed via aspiration and each slide was loaded with GDP in the presence of DPCPX and allowed to incubate of 60 min (Preincubation buffer, 2 mM GDP, 1 μM DPCPX, Millipore water). […] The [^35S]GTPγS cocktail was removed via aspiration and slides were washed in ice-cold washing buffer (50 mM Tris-HCl, 5 mM MgCl2, pH 7.4) for 5 min (2×) followed by a 30 s dip in ice-cold deionized water. Hydrophobic membrane was removed with a cotton swab and xylene and slides were placed into a […] covered by a BAS-SR2040 phosphor screen (FujiFilm; GE Healthcare). The slides were exposed to the phosphor screen for 3-5 days and imaged using a phosphor imager (Typhoon FLA 7000; GE Healthcare).

[5] = test system: untransfected HEK-293 cells; experiment: Negative controls of the functional assays: HEK-293 cells without DREADD; type: cell-based, human
Description: BRET assays were performed to detect receptor ligand-induced Gαo1 protein activation. […] Forty-eight hour after transfection cells were harvested, washed and resuspended in phosphate-buffered saline (PBS). Approximately, 200,000 cells/well were distributed in 96-well plates, and 5 µM Coelenterazine H (substrate for luciferase) was added to each well. Five minutes after addition of Coelenterazine H, ligands were added to each well. The fluorescence of the acceptor was quantified (excitation at 500 nm and emission at 540 nm for 1-s recordings) in a PheraStar FSX plate reader (BMG Labtech) to confirm the constant expression levels across experiments. In parallel, the BRET signal from the same batch of cells was determined as the ratio of the light emitted by mVenus (510–540 nm) over that emitted by RLuc (485 nm). Results were calculated for the BRET change (BRET ratio for the corresponding drug minus BRET ratio in the absence of the drug) 5 min after the addition of the ligands.
Intracellular Ca^2+ concentration was monitored using the fluorescent Ca^2+ biosensor GCaMP6f. HEK-293 cells were transfected with 7 µg/dish of the cDNA encoding for hM3Dq (Addgene #89149) or hM4Di (Addgene #89150) and 7 µg/dish of GCaMP6. Forty-eight hours after transfection, cells were harvested, washed, resuspended in Mg^2+-free Locke’s buffer pH 7.4 (154 mM NaCl, 5.6 mM KCl, 3.6 mM NaHCO3, 2.3 mM CaCl2, and 5 mM HEPES) containing 5.6 mM of glucose and approximately 200,000 cells/well were distributed in black 96-well plates. Increasing concentrations of the indicated compound were added to the cells and fluorescence intensity (excitation at 480 nm, emission at 530 nm) was measured at 18-s intervals during 250 s using a PHERAstar FSX (BMG Labtech). The net change in intracellular Ca^2+ concentration was expressed as F − F0 where F is the fluorescence at a given concentration of ligand and F0 is the average of the baseline values (fluorescence values of buffer-treated wells).

P-gp = molecular target: T2, P-gp (Homo sapiens, UniProt P08183); experiment: P-glycoprotein (P-gp) substrate assay in Caco-2 cells with and without verapamil; type: in vitro ADME; settings: Caco-2, efflux ratio with/without verapamil
T2 construct: host or cells: Caco-2
T2 sequence (P08183 whole entry): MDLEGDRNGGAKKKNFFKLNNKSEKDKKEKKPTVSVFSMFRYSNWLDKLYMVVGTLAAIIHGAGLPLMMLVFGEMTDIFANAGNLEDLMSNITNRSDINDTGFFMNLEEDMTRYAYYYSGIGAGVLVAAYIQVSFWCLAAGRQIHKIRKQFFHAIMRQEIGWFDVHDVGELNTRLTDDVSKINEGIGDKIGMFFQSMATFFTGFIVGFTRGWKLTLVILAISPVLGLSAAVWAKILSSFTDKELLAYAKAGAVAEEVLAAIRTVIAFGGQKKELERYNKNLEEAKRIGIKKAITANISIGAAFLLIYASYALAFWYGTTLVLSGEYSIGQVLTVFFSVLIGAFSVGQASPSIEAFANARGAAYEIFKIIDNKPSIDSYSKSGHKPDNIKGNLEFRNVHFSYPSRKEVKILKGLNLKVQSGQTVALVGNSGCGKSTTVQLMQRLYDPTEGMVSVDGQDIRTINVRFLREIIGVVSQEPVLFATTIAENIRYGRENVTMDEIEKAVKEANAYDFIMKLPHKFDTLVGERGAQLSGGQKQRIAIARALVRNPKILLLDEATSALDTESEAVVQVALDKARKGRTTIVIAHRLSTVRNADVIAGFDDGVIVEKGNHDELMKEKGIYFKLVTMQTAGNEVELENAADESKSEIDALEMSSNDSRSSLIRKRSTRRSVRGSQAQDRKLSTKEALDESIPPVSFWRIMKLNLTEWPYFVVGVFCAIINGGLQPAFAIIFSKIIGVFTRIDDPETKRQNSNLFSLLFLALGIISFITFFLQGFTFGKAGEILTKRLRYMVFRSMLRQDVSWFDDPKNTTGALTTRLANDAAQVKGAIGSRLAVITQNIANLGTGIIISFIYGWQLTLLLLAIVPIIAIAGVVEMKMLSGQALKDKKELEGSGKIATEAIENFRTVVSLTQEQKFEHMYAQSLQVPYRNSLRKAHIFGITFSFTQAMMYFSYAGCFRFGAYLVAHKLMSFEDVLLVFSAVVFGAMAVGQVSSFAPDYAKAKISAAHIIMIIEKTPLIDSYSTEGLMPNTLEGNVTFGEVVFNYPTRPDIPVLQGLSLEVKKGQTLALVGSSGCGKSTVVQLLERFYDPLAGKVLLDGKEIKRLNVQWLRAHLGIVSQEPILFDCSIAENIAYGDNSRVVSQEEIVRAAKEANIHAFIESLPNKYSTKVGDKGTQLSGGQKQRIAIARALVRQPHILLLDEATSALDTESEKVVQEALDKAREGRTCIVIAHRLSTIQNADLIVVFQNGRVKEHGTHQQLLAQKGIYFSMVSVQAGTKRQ
Description: These experiments were performed by an outside vendor (Eurofins, France). C21 was tested in P-gp substrate assessment assays at 10 µM. The A to B and B to A permeability was measured in Caco-2 cells in the presence and absence of verapamil, a P-gp inhibitor. Efflux ratios (E) were calculated based on the apparent B–A and A–B permeability with and without verapamil. In each experiment, the respective reference compound was tested concurrently with the test compound to assess the assay reliability. Fluorescein was used as the cell monolayer integrity marker. Fluorescein permeability assessment (in the A–B direction at pH 7.4 on both sides) was performed after the permeability assay for the test compound.

[6] = test system: mu, kappa, and delta opioid receptors; experiment: Binding and enzyme target profile screen (Eurofins); settings: competitive binding screen, 10 uM
Description: These experiments were performed by an outside vendor (Eurofins, France). […] In each experiment, the respective reference compound was tested concurrently with the test compound to assess the assay reliability. […] Following incubation, the samples were filtered rapidly under vacuum through glass fiber filters presoaked in a buffer and rinsed several times with an ice-cold buffer using a 48-sample or 96-sample cell harvester. The filters were counted for radioactivity in a scintillation counter using a scintillation cocktail.

hM4Di [7] = molecular target: T1, hM4Di; experiment: Autoradiography: direct binding of [3H]clozapine, [3H]C21, [3H]C13 in monkey brain sections expressing hM4Di; set-up: expressed in transfected cells; host or cells: rhesus monkey (Macaca mulatta) right amygdala, lentivirus-transduced neurons; species or system rhesus monkey (Macaca mulatta); unit not given here; settings: Fig. 1 panel H; [3H]-labelled ligand; individual values; listed as CLZ
From the text: Flash frozen tissue (both rodents and the monkey) was sectioned (20 µm) on a cryostat (Leica, Germany) and thaw mounted onto ethanol-washed glass slides. […] Slides were air dried and placed in a Hypercassette™ (Amersham Biosciences) and covered with a BAS-TR2025 Storage Phosphor Screen (FujiFilm, Japan). The slides were exposed to the screen for 5–7 days and imaged using a phosphor imager (Typhoon FLA 7000; GE Healthcare).

## CCN1CCN(C2=Nc3cc(Cl)ccc3Nc3ccc([18F])cc32)CC1 [[^18F]JHU37107]
hM4Di [1]
  PET visualization of hM4Di: permitted hM4Di visualization in both the AAV injection site as well as at known proximal and distal anatomical projection sites
[2]; in vitro monkey whole blood, 30 min incubation at room temperature
  parent radioactivity composition of plasma: 49.7%
[2]; monkey plasma, 30 min after IV administration
  parent radioactivity composition of plasma: 56%
[2]; monkey plasma, 180 min after IV administration
  parent radioactivity composition of plasma: 24.2%
hM4Di [3]
  pharmacokinetic properties: favorable pharmacokinetic properties
hM4Di [3]; hM4Di in right amygdala
  PET labelling of hM4Di: able to directly label hM4Di receptors

## CN1CCN(C2=Nc3cc(Cl)ccc3Nc3ccccc32)CC1 [clozapine]
WT mice
  brain metabolic activity ([18F]FDG): did not produce any significant changes in brain glucose metabolism
WT mice; listed as CLZ
  brain metabolic activity ([18F]FDG): did not show any significant changes in brain metabolic activity
hM4Di [4]
  hM4Di activation measured as [35S]GTPgammaS binding: induces significantly greater hM4Di activation
[5]
  functional response in HEK-293 cells lacking DREADDs: Neither clozapine nor C21 produced detectable functional responses
[5]; HEK-293 cells
  functional response, BRET (Go-alpha-Rluc8, beta1, gamma2-mVenus), no DREADD: did not show any functional response
  functional response, GCaMP6f, no DREADD: did not show any functional response
P-gp
  P-gp substrate: none of these compounds is a substrate for P-gp
[6]
  binding to opioid receptors: does not
hM4Di [7]
  tritiated ligand binding in brain tissue, CPu: 109.018 and 115.173 and 108.688 and 86.4656 and 88.6824 and 91.973
  tritiated ligand binding in brain tissue, CTX: 88.2005 and 122.029 and 119.221 and 97.205 and 89.8389 and 100.22
  tritiated ligand binding in brain tissue, hM4Di: 176.387 and 144.183 and 141.333 and 201.955 and 168.154 and 164.257
